This is an account of results in patent EP2065382A1, “CGRP antagonists” (Boehringer Ingelheim Pharma GmbH & Co. KG, priority 2007, dated 2009).

In the first experiment the target is T1, humanen CGRP-Rezeptor (Homo sapiens, UniProt O60894+Q16602).
T1 construct: SK-N-MC-Zellen werden in "Dulbecco's modified Eagle Medium" kultiviert; endogenous in cells; host or cells: SK-N-MC cells (membrane homogenate)
T1 sequence (Q16602 23-461): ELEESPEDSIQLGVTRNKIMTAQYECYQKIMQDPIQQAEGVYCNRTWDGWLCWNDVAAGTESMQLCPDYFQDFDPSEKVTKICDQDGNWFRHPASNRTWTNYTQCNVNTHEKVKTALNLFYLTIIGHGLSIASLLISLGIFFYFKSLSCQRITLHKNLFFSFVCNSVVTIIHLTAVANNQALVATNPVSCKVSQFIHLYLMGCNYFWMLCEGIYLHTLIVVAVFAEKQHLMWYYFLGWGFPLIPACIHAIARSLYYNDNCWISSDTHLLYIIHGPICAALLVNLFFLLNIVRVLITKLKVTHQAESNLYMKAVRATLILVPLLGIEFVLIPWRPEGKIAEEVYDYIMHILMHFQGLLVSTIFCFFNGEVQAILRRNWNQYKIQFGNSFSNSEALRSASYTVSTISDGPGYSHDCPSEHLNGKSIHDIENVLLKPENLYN
T1 sequence (O60894 27-148): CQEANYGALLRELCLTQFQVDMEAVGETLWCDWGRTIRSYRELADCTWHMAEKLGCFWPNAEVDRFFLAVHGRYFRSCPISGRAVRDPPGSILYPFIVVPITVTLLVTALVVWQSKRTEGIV
Kind of experiment: Binding studies with SK-N-MC cells expressing the human CGRP receptor (125I-CGRP displacement on membrane homogenate). The settings on record: 50 pM 125I-Iodotyrosyl-CGRP, 180 min at room temperature. Here is the method: A. Bindungsstudien mit (den humanen CGRP-Rezeptor exprimierenden) SK-N-MC-Zellen
SK-N-MC-Zellen werden in "Dulbecco's modified Eagle Medium" kultiviert. Das Medium konfluenter Kulturen wird entfernt. Die Zellen werden zweimal mit PBS-Puffer (Gibco 041-04190 M) gewaschen, durch Zugabe von PBS-Puffer, versetzt mit 0.02% EDTA, abgelöst und durch Zentrifugation isoliert. Nach Resuspension in 20 ml "Balanced Salts Solution" [BSS (in mM): NaCl 120, KCl 5.4, NaHCO3 16.2, MgSO4 0.8, NaHPO4 1.0, CaCl2 1.8, D-Glucose 5.5, HEPES 30, pH 7.40] werden die Zellen zweimal bei 100 x g zentrifugiert und in BSS resuspendiert. Nach Bestimmung der Zellzahl werden die Zellen mit Hilfe eines Ultra-Turrax homogenisiert und für 10 Minuten bei 3000 x g zentrifugiert. Der Überstand wird verworfen und das Pellet in Tris-Puffer (10 mM Tris, 50 mM NaCl, 5 mM MgCl2, 1 mM EDTA, pH 7.40), angereichert mit 1% Rinderserum-Albumin und 0.1% Bacitracin, rezentrifugiert und resuspendiert (1 ml / 1000000 Zellen). Das Homogenat wird bei -80°C eingefroren. Die Membranpräparationen sind bei diesen Bedingungen für mehr als 6 Wochen stabil.
Nach Auftauen wird das Homogenat 1:10 mit Assay-Puffer (50 mM Tris, 150 mM NaCl, 5 mM MgCl2, 1 mM EDTA, pH 7.40) verdünnt und 30 Sekunden lang mit einem Ultra-Turrax homogenisiert. 230 µl des Homogenats werden für 180 Minuten bei Raumtemperatur mit 50 pM ^125I-Iodotyrosyl-Calcitonin-Gene-Related Peptide (Amersham) und ansteigenden Konzentrationen der Testsubstanzen in einem Gesamtvolumen von 250 µl inkubiert. Die Inkubation wird durch rasche Filtration durch mit Polyethylenimin (0.1%) behandelte GF/B-Glasfaserfilter mittels eines Zellharvesters beendet. Die an Protein gebundene Radioaktivität wird mit Hilfe eines Gammacounters bestimmt. Als nichtspezifische Bindung wird die gebundene Radioaktivität nach Gegenwart von 1 µM humanem CGRP-alpha während der Inkubation definiert.
Die Analyse der Konzentrations-Bindungskurven erfolgt mit Hilfe einer computergestützten nichtlinearen Kurvenanpassung.
What is called Ki is a measure of affinity in units of concentration, obtained from inhibition or displacement. `O=C(c1cc(N2CCC(n3c(=O)[nH]c4ncccc43)CC2)ncn1)c1c[nH]c2ccccc12` [(1)] had a Ki of 120 nM. `COc1ccc2c(c1)CCN(C1CCN(c3cc(C(=O)c4cn(C)c5ccccc45)ncn3)CC1)C(=O)N2` [(4)] came in with a Ki of 4 nM. Consider `Cn1cc(C(=O)c2cc(N3CCC(n4c(=O)[nH]c5ccccc54)CC3)ncn2)c2ccccc21` [(9)], for which the affinity corresponds to a Ki of 251 nM. In the case of `Cn1cc(C(=O)c2cc(N3CCC(n4cc(-c5ccccc5)[nH]c4=O)CC3)ncn2)c2ccccc21` [(14)], the affinity corresponds to a Ki of 6 nM. `Cn1cc(C(=O)c2cc(N3CCC(n4c(=O)[nH]c5ncccc54)CC3)ncn2)c2ccc(F)cc21` [(21)] gave a Ki of 2 nM. `O=C(c1cc(N2CCC(n3c(=O)[nH]c4ncccc43)CC2)ncn1)c1cn(CCCN2CCCCC2)c2ccccc12` [(25)] yielded a Ki of 16 nM.

Molecule `CN(C)CCCn1cc(C(=O)c2cc(N3CCC(n4c(=O)[nH]c5ncccc54)CC3)ncn2)c2ccccc21` [(42)] showed a Ki of 6 nM.

Still in this experiment, the particulars now being: 50 pM 125I-Iodotyrosyl-CGRP, 180 min at room temperature, read-out: Ki.
On to `Cn1cc(C(=O)c2cc(N3CCC(n4c(=O)[nH]c5ncccc54)CC3)ncn2)c2ccccc21` [(2)], for which the Ki was determined as 5 nM. On to `Cc1ccc2c(C(=O)c3cc(N4CCC(n5c(=O)[nH]c6ncccc65)CC4)ncn3)cn(C)c2c1` [(30)], for which the inhibition constant (Ki) stood at 25 nM.
